Assay results taken from patent US20260217693A1, “SRPK1 INHIBITORS AND METHODS OF USE” (ALLIANTHERA (SUZHOU) BIOPHARMACEUTICAL CO., LTD., priority 2023, published 2026).

Molecular target: SRPK1 (Homo sapiens, UniProt Q96SB4)
Test: SRPK1 assay, Method 2 (ADP-Glo luminescence)
Type: biochemical
Conditions: Method 2 (asterisk): substrate Human SRSF1/SF2 0.15 μM, ATP 4 μM, 25° C. for 3 h, test compounds 100 nM top, 3-fold, 10 dose
Procedure: The SPRK1 assay was performed as follows:
Method 2: The assay buffer was prepared. The reference compound was diluted to 1 mM in the assay buffer. The test compounds were prepared at a concentration of 100 μM, then diluted 3-fold. Five nL of compounds/DMSO were transferred to 384-well plate. The reference compound is 1000 nM top concentration, 3-fold, 10 dose. The test compounds are 100 nM top concentration, 3-fold, 10 dose. 2.5 ul of enzyme (SRPK1 final concentration at […]) was added to each well, then the plate was spun down at 1000 rpm and centrifuged for 30 sec. After, 2.5 ul substrate (Human SRSF1/SF2 final concentration of 0.15 μM, ATP final concentration of 4 μM) was added to the plate, spun down at 1000 rpm and centrifuged for 30 sec. The plate was then placed in an incubator at 25° C. for 3 h. Then, 5 μl of ADP-Glo™ Reagent was added to each well, and the plate incubated at room temperature for 60 minutes. After 60 min, 10 μl of Kinase Detection Reagent was added to each well, and the plate was incubated at room temperature for 30 minutes. The luminescence of each well was recorded on Envision.
All assays were performed using Method 1, except where indicated with an asterisk (*) in the below table, indicating Method 2 was used. I.A. indicates an IC50 greater than 30 μM.

Chain of SRPK1 (Q96SB4 whole entry): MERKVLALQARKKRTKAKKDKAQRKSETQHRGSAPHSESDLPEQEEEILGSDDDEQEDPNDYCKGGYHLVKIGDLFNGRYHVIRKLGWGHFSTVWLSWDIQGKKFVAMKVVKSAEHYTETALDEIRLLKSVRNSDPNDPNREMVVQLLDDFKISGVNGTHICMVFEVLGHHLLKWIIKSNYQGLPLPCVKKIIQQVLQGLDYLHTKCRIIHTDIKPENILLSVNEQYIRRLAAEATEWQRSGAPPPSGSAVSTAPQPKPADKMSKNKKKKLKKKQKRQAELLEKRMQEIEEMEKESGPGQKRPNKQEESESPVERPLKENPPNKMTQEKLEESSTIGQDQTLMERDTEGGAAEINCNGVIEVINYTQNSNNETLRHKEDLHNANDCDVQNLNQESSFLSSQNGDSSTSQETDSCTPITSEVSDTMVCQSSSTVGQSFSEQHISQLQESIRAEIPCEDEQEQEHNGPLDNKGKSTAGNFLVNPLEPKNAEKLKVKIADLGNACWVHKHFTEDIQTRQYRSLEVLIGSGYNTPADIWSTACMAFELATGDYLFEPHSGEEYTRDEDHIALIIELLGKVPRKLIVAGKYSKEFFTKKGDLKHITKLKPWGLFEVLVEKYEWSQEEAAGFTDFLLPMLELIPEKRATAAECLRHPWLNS

Compound: O=C(Nc1cc(C2CC2)cnc1N1CCC(O)CC1)c1ccc(-c2cn[nH]c2)o1 [Compound 086]
- IC50: 0.615 nM
